From paper PMC4133124 (Clinical pharmacokinetics, 2014)
Where two headings read alike, the source gives them in different places.

Assays:
[1] = Sitagliptin pharmacokinetics published in the literature; format: in vivo, human; conditions: comparison with ref 9
[2] = test system: engraftment of single unit UCB transplants; conditions: single unit UCB HCT, sitagliptin 600 mg OD days −1 to +2; cited from earlier work
[3] = 600 mg OD, HCT population; ref Farag, S.S. et al. [9]; cited from earlier work
[4] = cited from earlier work
[5] = Sitagliptin plasma pharmacokinetics in adults after single-unit UCB HCT; format: in vivo, human
[6] = cited from earlier work; remark: listed apart in the source
[7] = bootstrap analysis median [5 – 95th percentiles], 200 data sets
[8] = population estimate (RSE%), 600 mg OD oral, HCT patients
[9] = 83 mg OD, ref Vincent, S.H. et al. [12]
[10] = 100 mg OD, ref Herman, G.A. et al. [14]
[11] = 100 mg OD, ref Kim, B.H. et al. [13]
[12] = 200 mg BID, ref Herman, G.A. et al. [16]
[13] = 600 mg OD, ref Bergman, A.J. et al. [10]
[14] = 600 mg OD, ref Herman, G.A. et al. [11]

N[C@@H](CC(=O)N1CCn2c(nnc2C(F)(F)F)C1)Cc1cc(F)c(F)cc1F [sitagliptin]
clearance (dose/AUC0-∞) in non-HCT populations lower than in HCT (Farag et al.) [1]: 50% | median time to engraftment [2]: 21 days | AUC0-∞ [3]: 11661 ng·h/mL | Cmax [3]: 1690 ng/mL | protein-bound [4]: 34–46% | VC/F (second line so labelled, row r8) [5, 7]: 207.51 [160.11 – 249.82] L | ka [5, 7]: 0.22 [0.20 – 0.25] h^−1 | Vd/F ([5]; human, plasma, po, 600 mg): 176 L | sitagliptin pharmacokinetics in the HCT population lower than published profiles ([5]; in vivo): ~ 50% | CL/F, total apparent oral clearance [5, 8]: 84.79 (11.91) L/h | Q/F, inter-compartmental distribution clearance [5, 8]: 14.29 (13.25) L/h | VC/F (second line so labelled, row r8) [5, 8]: 217.62 (13.19) L | ka, first order rate constant of absorption [5, 8]: 0.22 (7.47) h^−1 | AUC0-∞ [6, 9]: 2460.15 ng·h/mL | Cmax [6, 9]: 309.14 ng/mL | AUC0-∞ ([6]; 100 mg OD, ref Bergman, A. et al. [15]): 3470.28 ng·h/mL | AUC0-∞ ([6]; 100 mg OD, ref Bergman, A. et al. [17]): 3217.74 ng·h/mL | AUC0-∞ [6, 10]: 3523.23 ng·h/mL | Cmax [6, 10]: 390.61 ng/mL | AUC0-∞ [6, 11]: 2407.23 ng·h/mL | Cmax [6, 11]: 383.17 ng/mL | AUC0-12 (column AUC0-∞, footnote b) [6, 12]: 5987.45 ^b ng·h/mL | Cmax [6, 12]: 928.66 ng/mL | AUC0-24 (column AUC0-∞, footnote a) [6, 13]: 22772.81 ^a ng·h/mL | Cmax [6, 13]: 3156.65 ng/mL | AUC0-∞ [6, 14]: 22402.05 ng·h/mL | Cmax [6, 14]: 3437.7 ng/mL | renal elimination ([6]; glomerular filtration and active secretion): 87% | administered dose metabolized via CYP3A and 2C8 ([6]; healthy volunteers and patients with type 2 diabetes mellitus): 16% | bioavailability ([6]; healthy volunteers): 87%
